Measurements from publication PMC8080595, “Discovery of a novel RORγ antagonist with skin-restricted exposure for topical treatment of mild to moderate psoriasis” (Scientific Reports, 2021).

Experiments:
in vivo = details: female, C57BL/6, mouse
Procedure: (§1) The dermal PK studies of Compound 1 in Vaseline were performed in dorsal skin of female C57BL/6 and male BALB/c mice via topical route. The skin (1.5 cm × 2 cm) was shaved one day prior to the dosing. At tissue collecting time point, the skin surface was decontaminated (twice with hand soap, twice with water, alternatively, and dried with tissue swabs). Stratum corneum is removed with tape strips for five times. The tissues were homogenized for PK analyses of Compound 1 by LC/MS.

[1] = system: IL-17 secretion from human PBMCs; test: Human IL-17 production assay using human PBMC; assay type: cell-based; details: cytostim stimulation 72 h
Procedure: To confirm cellular on-target effects, we investigated the inhibition of selected RORγ antagonists on RORγ-regulated IL-17 secretion using human PBMC. Human IL-17-producing cells were readily formed following cytostim stimulation. In human PBMC stimulated with cytostim for 72 h, differentiation of Th17 cells was confirmed by increased secretion of IL-17 (291 pg/mL) in cell culture supernatant compared to basal level of IL-17 (20 pg/mL IL-17 without cytostim stimulation), […] of IL-17 secretion.
Human PBMCs (Zenbio) in TexMACS media were stimulated by cytostim (Miltenyi) for 72 h following the vendor's instruction. Human IL-17A in cell culture supernatant was measured using AlphaLISA human IL-17A Biotin-free detection kit (Perkin Elmer) according to the manufacturer’s protocol.

[2] = Liver microsomal stability, mouse; assay type: in vitro ADME; details: liver microsomes, pH 7.4, read-out: Liver microsomal stability, t1/2, Mouse
Procedure: (§2) The compound was mixed with 0.5 mg/ml human liver microsome (Thermal Fisher) at a final concentration of 1 µM in 100 mM potassium phosphate buffer, pH 7.4. The reactions were initiated by the addition of 1 mM NADPH. Samples in duplicate were incubated at 37 °C with mixing. 100 µL aliquots were transferred after 0, 5, 10, 30, 45, 60 minutes to a new tube with 300 µL acetonitrile, incubated on ice for 30 minutes, centrifuged at 1800×g at 4 °C for 10 minutes. The supernatants were transferred to glass vials subjected to LC/MS analysis. Peak areas were measured to calculate half-life according to the formula t1/2 = − 0.693/slope of linear regression analysis of ln [concentration] versus incubation time. Similar methods were applied to access mouse and rat liver microsomal stability of the compounds.

Oral PK in SD rats = assay type: in vivo; details: male, rat, plasma, 2 mg/kg oral
Procedure: Compounds were dissolved in 5% DMSO, 5% tween 80 and then added 90% saline. Male SD rats were dosed with the compound via oral (2 mg/kg or 5 mg/kg) routes, respectively after fasting overnight. Blood of the animals were collected at indicated time post dosing. Blood samples were then prepared for plasma and analyzed for the compounds using validated LC/MS assays. The experimental protocol used in this study was approved by IACUC. The experiments were conducted in accordance with the Guiding Principles for the Care and Use of Laboratory Animals and complied with the ARRIVE guidelines.

[3] = system: IL-17 secretion in mouse splenocyte; test: Mouse IL-17 production assay using mouse splenocyte; assay type: cell-based; details: Th17 differentiation, 72 h, n = 3, read-out: inhibition of secretion of IL-17 in mouse splenocyte, average IC50
Procedure: To evaluate the impact of SHR168442 on IL-17 secretion in mouse cells, the mouse Th17 cell differentiation kit from R&D Systems was used to polarize the mouse spleen cells. Differentiation of Th17 cells in mouse splenocyte for 72 h was confirmed by secretion of IL-17 in culture supernatant, 93 pg/mL in average (2.7 pg/mL without differentiation), a 34-fold increase of IL-17 secretion.
Mouse splenocytes (Zenbio) were stimulated by Mouse Th17 Differentiation Media (R&D Systems) according to the manufacturer’s protocol. On day 5, compounds were added and then incubated for 72 h, and IL-17 in the supernatant was measured using IL-17A homodimer (mouse) AlphaLISA detection kit (Perkin Elmer) according to the manufacturer’s protocol.

RORα = target: T1, RORα (Homo sapiens, UniProt P35398); test: RORα luciferase reporter assay; assay type: cell-based; details: up to 10,000 nM, n = 3
T1 sequence (P35398 272-523 limits assumed): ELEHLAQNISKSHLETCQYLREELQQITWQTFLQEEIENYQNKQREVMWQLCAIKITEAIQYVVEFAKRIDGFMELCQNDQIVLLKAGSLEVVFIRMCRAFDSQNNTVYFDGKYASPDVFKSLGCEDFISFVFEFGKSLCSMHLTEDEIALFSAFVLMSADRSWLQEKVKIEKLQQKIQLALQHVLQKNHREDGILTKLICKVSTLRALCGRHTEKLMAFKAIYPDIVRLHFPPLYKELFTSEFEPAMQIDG
Procedure: We next assessed the selectivity of SHR168442 against another ROR family member, RORα, using nuclear reporter assay. […] ATRA (all trans-retinoic acid) was used as a positive control in the assay.
Cell-based luciferase reporter assays for RORα and RORγ (Indigo Biosciences) were performed according to the manufacturer’s protocol.

[4] = Liver microsomal stability, rat; assay type: in vitro ADME; details: liver microsomes, pH 7.4, read-out: Liver microsomal stability, t1/2, Rat
Procedure: as §2

Dermal PK, BALB/c mouse = assay type: in vivo; details: for Exposure in plasma: 2% in Vaseline, topical
Procedure: as §1

[5] = Liver microsomal stability, human; assay type: in vitro ADME; details: human, liver microsomes, pH 7.4; 1 µM compound, 0.5 mg/ml microsome, NADPH, 37 °C; read-out: Liver microsomal stability, t1/2, Human
Procedure: as §2

[6] = system: targets in the SAFETYscan47 panel; test: SAFETYscan47 panel (DiscoverX), whole panel; details: 3 µM, duplicates, all targets
Procedure: To further profile any off-target activity, we counter-screened SHR168442 in SAFETYscan47 panel, compiled by DiscoverX based on the recommendation by major pharmaceutical companies. SHR168442 was screened at 3 µM in duplicates.

CCS(=O)(=O)c1ccc([C@H](CCO)c2nc3c(Cl)c(N4CCC(F)(F)CC4)c(Cl)cc3[nH]2)cc1 [SHR168442, (S)-3-(4,6-dichloro-5-(4,4-difluoropiperidin-1-yl)-1H-benzo[d]imidazol-2-yl)-3-(4-(ethylsulfonyl)phenyl)propan-1-ol]
Exposure in plasma (in vivo; 3 h): 7.0 ng/mL | Exposure in skin (in vivo; 6 h): 18,500 ng/g | concentration at 3 h (in vivo; Exposure in plasma): 8.8 ng/mL | concentration at 6 h (in vivo; Exposure in skin): 9710 ng/g | EC50 [1]: 20 ± 6 nM | IC50 [1]: 20 nM | half-life at 1 µM [2]: 6.2 min | AUC (Oral PK in SD rats; read-out: Exposure in SD Rat, AUC): 59 ng·h/mL | Cmax (Oral PK in SD rats; read-out: Exposure in SD Rat, Cmax): 9.5 ng/mL | half-life (Oral PK in SD rats; read-out: Exposure in SD Rat, t1/2 (converted)): 372 min | IC50 [3]: 54 ± 12 nM | effect on RORα reporter activity (RORα): little effect | half-life at 1 µM [4]: 8.6 min | Exposure in plasma (Dermal PK, BALB/c mouse; 3 h): blq (below limit of quantitation (< 6 ng/mL)) | Exposure in plasma (Dermal PK, BALB/c mouse; 6 h): blq (below limit of quantitation (< 6 ng/mL)) | concentration at 3 h (Dermal PK, BALB/c mouse; male, BALB/c, mouse, in vivo): 2460 ng/g | concentration at 6 h (Dermal PK, BALB/c mouse; male, BALB/c, mouse, in vivo): 4390 ng/g | half-life at 1 µM [5]: 2.3 min | inhibition of the targets in the SAFETYscan47 panel [6]: below 50%
